Measured values reported in patent US20250205168A1, “METHOD FOR PRODUCING NUCLEIC ACID-ENCAPSULATED LIPID NANOPARTICLES, METHOD FOR PRODUCING PHARMACEUTICAL COMPOSITION CONTAINING SAID LIPID NANOPARTICLES, AND METHOD FOR INTRODUCING NUCLEIC ACID INTO CELL OR TARGET CELL” (NOF Corporation, priority 2022, published 2025).
“Also recorded” adds a separate entry of the source.

Tests used:
[1] = mRNA encapsulation rate (Ribogreen assay); assay type: physicochemical; settings: 37° C. 5 min
Procedure: The particle size, polydispersity index (PdI), and mRNA encapsulation rate of the obtained nucleic acid-encapsulated nanoparticles were analyzed. The particle size and PdI were measured by the dynamic light scattering method using a Zetasizer (registered trademark). The mRNA encapsulation rate was measured by the Ribogreen (registered trademark) assay. […]
The particle size, polydispersity index (PdI), and mRNA encapsulation rate of the obtained nucleic acid-encapsulated nanoparticles were analyzed. The particle size and PdI were measured by the dynamic light scattering method using a Zetasizer (registered trademark). The mRNA encapsulation rate was measured by the Ribogreen (registered trademark) assay. As a result, mRNA was encapsulated at any incubation temperature, and no difference in the encapsulation rate was observed. The particle size of the obtained nucleic acid-encapsulated nanoparticles tended to increase with increasing incubation temperature (see FIG. 24 and FIG. 25).
The particle size, polydispersity index (PdI), and mRNA encapsulation rate of the obtained nucleic acid-encapsulated nanoparticles were analyzed. The particle size and PdI were measured by the dynamic light scattering method using a Zetasizer (registered trademark). The mRNA encapsulation rate was measured by the Ribogreen (registered trademark) assay. As a result, the encapsulation rate of mRNA tended to decrease with increasing salt concentration of the buffer (see FIG. 34 and FIG. 35).
The particle size, polydispersity index (PdI), and mRNA encapsulation rate of the obtained nucleic acid-encapsulated nanoparticles were analyzed. The particle size and PdI were measured by the dynamic light scattering method using a Zetasizer (registered trademark). The mRNA encapsulation rate was measured by the Ribogreen (registered trademark) assay. As a result, mRNA was encapsulated (see Table 5).
The particle size, polydispersity index (PdI), and mRNA encapsulation rate of the obtained nucleic acid-encapsulated nanoparticles or nucleic acid-encapsulated nanoparticles prepared by freeze-dry technique in Comparative Example 1 were analyzed. The particle size and PdI were measured by the dynamic light scattering method using a Zetasizer (registered trademark). The mRNA encapsulation rate was measured by the Ribogreen (registered trademark) assay. […] In addition, the particle size of the nucleic acid-encapsulated nanoparticles was smaller than that of nucleic acid-encapsulated nanoparticles produced by the freeze-dry technique (see FIG. 14 and FIG. 15).
The particle size, polydispersity index (PdI), and mRNA encapsulation rate of the obtained nucleic acid-encapsulated nanoparticles or nucleic acid-encapsulated nanoparticles prepared by freeze-dry technique in Comparative Example 2, Comparative Example 3 were analyzed. The particle size and PdI were measured by the dynamic light scattering method using a Zetasizer (registered trademark). The mRNA encapsulation rate was measured by the Ribogreen (registered trademark) assay. […] In addition, the particle size of the nucleic acid-encapsulated nanoparticles was smaller than that of nucleic acid-encapsulated nanoparticles produced by the freeze-dry technique (see FIG. 36 and FIG. 37). In FIG. 36, FIG. 37 and FIG. 38, Comparative Example 2 in which the total flow rate during preparation of lipid nanoparticles was 1 mL/min, is shown as “freeze-dry (FR=1)”, and Comparative Example 3, in which the total flow rate was 16 mL/min, is shown as “freeze-dry (FR=16)”.
The particle size, polydispersity index (PdI), and mRNA encapsulation rate of the obtained nucleic acid-encapsulated nanoparticles (liquid) or nucleic acid-encapsulated nanoparticles produced using a microfluidic channel (MF) (LNP prepared with the same lipid composition and using MES buffer (20 mM, pH 6.5) containing nucleic acid and an ethanol solution of lipid) were analyzed. […]

[2] = Zeta potential by electrophoretic light scattering (Zetasizer); assay type: physicochemical; settings: Example 10; particles produced using SS-OP at pH and pH 5.5 compared to pH 6, pH 6.5 and pH 7; measured in MES pH 5-7
Procedure: Among the obtained nucleic acid-encapsulated nanoparticles, the particles produced using SS-OP were analyzed for Zeta potential. Zeta potential was measured by the electrophoretic light scattering method using Zetasizer (registered trademark) and using MES buffer (pH 5, pH 5.5, pH 6, pH 6.5 or pH 7).

HeLa cells = assay: nucleic acid introduction into HeLa cells, luciferase luminescence (Steady-Glo, GloMax 20/20 luminometer); assay type: cell-based; settings: Example 10, particles produced using SS-OP, after 13 hr
Procedure: The nucleic acid-encapsulated nanoparticles obtained were applied to HeLa cells to evaluate the nucleic acid introduction efficiency. HeLa cells were seeded in D-MEM medium (high glucose) (containing L-glutamine and phenol red) (containing 10% FBS and 1% penicillin-streptomycin solution added) at 5×10^3 cells/100 μL in a 96-well flat-bottom transparent plate. The obtained nucleic acid-encapsulated particles were added such that the nucleic acid concentration in the medium was 0.02 μg/4 μL. After 16 hr, the amount of luciferase protein introduced was evaluated using the amount of luminescence. 100 μL of Steady-Glo (registered trademark) was added, and the cells were lysed by shaking for 5 min, and the amount of luminescence was quantified using a GloMax 20/20 luminometer. As a result, the introduction of luciferase protein was confirmed at any incubation temperatures, and no difference in in vitro activity was observed.
The nucleic acid-encapsulated nanoparticles obtained were applied to HeLa cells and the nucleic acid introduction efficiency was evaluated. […] After 13 hr, the amount of luciferase protein introduced was evaluated using the amount of luminescence. 100. μL of Steady-Glo (registered trademark) was added, and the cells were lysed by shaking for 5 min, and the amount of luminescence was quantified using a GloMax 20/20 luminometer. […]

[3] = Example 4, LNP in MES pH 5, 5.5, 6, 6.5 or 7, mRNA 1.5 μg/135 μL
[4] = Example 10, LNP and mRNA (3 μg/135 μL) in MES pH 5, 5.5, 6, 6.5 or 7

SMILES	encapsulation rate at higher pH, in words [1, 3]	encapsulation rate at higher pH, in words [1, 4]	Zeta potential, in words [2]	in vitro activity (luciferase luminescence) by pH of production, in words (HeLa cells)
CCCCCCCC/C=C\CCCCCCCC(=O)OCCC1CCN(CCSCSCCN2CCC(CCOC(=O)CCCCCCC/C=C\CCCCCCCC)CC2)CC1 [SS-OC]	decreased at pH 6, pH 6.5, and pH 7	decreased at pH 6.5 and pH 7		
CCCCCCCC/C=C\CCCCCCCC(=O)Oc1ccc(CC(=O)OCCC2CCN(CCSSCCN3CCC(CCOC(=O)Cc4ccc(OC(=O)CCCCCCC/C=C\CCCCCCCC)cc4)CC3)CC2)cc1 [SS-OP]	decreased at pH 6.5 and pH 7	decreased at pH 6.5 and pH 7	higher values in a low pH environment	highest in vitro activity was observed at pH 6; also recorded: slightly decreasing at pH 6.5; also recorded: low activity was observed at pH 5, pH 5.5, and pH 7
CCCCCCCC/C=C\CCCCCCCC(=O)OCC(CN(C)C)OC(=O)CCCCCCC/C=C\CCCCCCCC (stereo not shown) [DODAP, 1,2-dioleoyloxy-3-dimethylaminopropane, reference compound]	decreased at pH 6, pH 6.5, and pH 7	decreased at pH 6.5 and pH 7		
CCCCCC=CCC=CCCCCCCCCC(CCCCCCCCC=CCC=CCCCCC)OC(=O)CCCN(C)C (stereo not shown) [MC3, heptatriaconta-6,9,28,31-tetraen-19-yl-4-(dimethylamino)butanoate, reference compound]	decreased at pH 6.5 and pH 7	decreased at pH 6.5 and pH 7		
